Active and inactive are the calls of the source. The calls are words filed in the database; no cut-off is given here.
Tests used:
[1] = test system: Bacteria; experiment: Inhibition of AIM-1 (unknown origin) at 10 uM relative to control
[2] = biological target: Metallo-beta-lactamase type 2 (Bacteria) (UniProt C7C422); experiment: Inhibition of NDM-1 (unknown origin) at 10 uM relative to control
[3] = test system: Escherichia coli; experiment: Antagonistic antibacterial activity against Escherichia coli expressing AIM-1 in presence of penicillin G by checkerboard sensitivity assay; assay type: functional, organism-based
[4] = test system: Bacteria; experiment: Competitive inhibition of AIM-1 (unknown origin) using cefuroxime as substrate by Michaelis-Menten equation based kinetic analysis
[5] = test system: Escherichia coli; experiment: Synergistic antibacterial activity against Escherichia coli expressing CphA in presence of meropenem by checkerboard sensitivity assay; assay type: functional, organism-based
[6] = test system: Escherichia coli; experiment: Synergistic antibacterial activity against Escherichia coli expressing CphA in presence of penicillin G by checkerboard sensitivity assay; assay type: functional, organism-based
[7] = biological target: Metallo-beta-lactamase type 2 (Bacteria) (UniProt C7C422); experiment: Competitive inhibition of NDM-1 (unknown origin) using penicillin G as substrate by Michaelis-Menten equation based kinetic analysis
[8] = test system: Escherichia coli; experiment: Synergistic antibacterial activity against Escherichia coli expressing NDM-1 in presence of cefuroxime by checkerboard sensitivity assay; assay type: functional, organism-based
[9] = test system: Escherichia coli; experiment: Synergistic antibacterial activity against Escherichia coli expressing NDM-1 in presence of penicillin G by checkerboard sensitivity assay; assay type: functional, organism-based
[10] = biological target: Metallo-beta-lactamase type 2 (Bacteria) (UniProt C7C422); experiment: Uncompetitive inhibition of NDM-1 (unknown origin) using penicillin G as substrate by Michaelis-Menten equation based kinetic analysis
[11] = test system: Escherichia coli; experiment: Synergistic antibacterial activity against Escherichia coli expressing AIM-1 in presence of cefuroxime by checkerboard sensitivity assay; assay type: functional, organism-based
[12] = test system: Escherichia coli; experiment: Antagonistic antibacterial activity against Escherichia coli expressing NDM-1 in presence of meropenem by checkerboard sensitivity assay; assay type: functional, organism-based
[13] = test system: Escherichia coli; experiment: Synergistic antibacterial activity against Escherichia coli expressing AIM-1 in presence of meropenem by checkerboard sensitivity assay; assay type: functional, organism-based
[14] = test system: Escherichia coli; experiment: Synergistic antibacterial activity against Escherichia coli expressing CphA in presence of cefuroxime by checkerboard sensitivity assay; assay type: functional, organism-based
[15] = test system: Bacteria; experiment: Uncompetitive inhibition of AIM-1 (unknown origin) using cefuroxime as substrate by Michaelis-Menten equation based kinetic analysis
[16] = Inhibition of CphA (unknown origin) using meropenem as substrate; parameters: species or system Bacteria
[17] = Stability of the compound in NaBH4/ethanol assessed as oxidation measured after 24 hrs at room temperature; assay type: physicochemical
[18] = test system: Escherichia coli; experiment: Synergistic antibacterial activity against Escherichia coli expressing AIM-1 in presence of penicillin G by checkerboard sensitivity assay; assay type: functional, organism-based
[19] = test system: Escherichia coli; experiment: Antagonistic antibacterial activity against Escherichia coli expressing AIM-1 in presence of meropenem by checkerboard sensitivity assay; assay type: functional, organism-based
[20] = test system: Escherichia coli; experiment: Antagonistic antibacterial activity against Escherichia coli expressing AIM-1 in presence of cefuroxime by checkerboard sensitivity assay; assay type: functional, organism-based

Chain of Metallo-beta-lactamase type 2 (Bacteria) (C7C422 whole entry): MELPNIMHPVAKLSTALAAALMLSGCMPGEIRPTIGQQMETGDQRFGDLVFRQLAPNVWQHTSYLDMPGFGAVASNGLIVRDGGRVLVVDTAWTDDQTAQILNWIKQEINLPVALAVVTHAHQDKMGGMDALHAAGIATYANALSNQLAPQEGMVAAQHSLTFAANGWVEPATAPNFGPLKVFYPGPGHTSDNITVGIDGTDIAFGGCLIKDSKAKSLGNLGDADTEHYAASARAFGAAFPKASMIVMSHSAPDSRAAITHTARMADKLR

SMILES	inhibition [1]	inhibition [2]	Kic [4]	Kic [7]	Kiuc [10]	Kiuc [15]	also measured
COC(=O)c1ccc(-c2c(C#N)c(N)n(Cc3ccccc3)c2-c2ccc(C(=O)OC)cc2)cc1	inactive	inactive	–	–	–	–	–
N#Cc1c(-c2ccccc2)c(-c2ccccc2)n(Cc2ccccc2)c1/N=C/c1ccccc1	42%	38%	3.6 µM	3.2 µM	6 µM	11 µM	Activity [3]: Active; Activity [5]: Active; Activity [6]: Active; Activity [8]: Active; Activity [9]: Active; Activity [11]: Active; Activity [12]: Active; Activity [13]: Active; Activity [14]: Active; IC50 [16]: 75 µM
N#Cc1c(-c2ccc(C(=O)O)cc2)c(-c2ccc(C(=O)O)cc2)n(Cc2ccccc2)c1N	inactive	inactive	–	–	–	–	–
N#Cc1c(-c2ccccc2)c(-c2ccccc2)n(Cc2ccccc2)c1NCc1ccccc1	32%	41%	–	–	2.7 µM	–	Stability [17]: Stable
N#Cc1c(-c2ccccc2)c(-c2ccccc2)n(Cc2ccccc2)c1/N=C/c1cccnc1	11%	28%	–	–	–	–	–
N#Cc1c(-c2ccccn2)c(-c2ccccn2)n(Cc2ccccc2)c1N	inactive	inactive	–	–	–	–	–
N#Cc1c(-c2ccccc2)c(-c2ccccc2)n(Cc2ccccc2)c1/N=C/c1ccc(O)cc1	61%	49%	4.4 µM	1.3 µM	0.9 µM	4.7 µM	Activity [3]: Active; Activity [5]: Active; Activity [6]: Active; Activity [8]: Active; Activity [9]: Active; Activity [11]: Active; Activity [12]: Active; Activity [13]: Active; Activity [14]: Active; IC50 [16]: 45 µM
N#Cc1c(-c2ccccc2)c(-c2ccccc2)n(Cc2ccccc2)c1NCc1cccs1	25%	29%	–	–	–	–	–
N#Cc1c(-c2ccccc2)c(-c2ccccc2)n(Cc2ccccc2)c1NC(=O)c1ccccc1	42%	47%	11 µM	9 µM	5 µM	19 µM	Activity [5]: Active; Activity [18]: Active; Activity [6]: Active; Activity [8]: Active; Activity [9]: Active; Activity [19]: Active; Activity [20]: Active; Activity [12]: Active; Activity [14]: Active
N#Cc1c(-c2ccccc2)c(-c2ccccc2)n(Cc2ccccc2)c1/N=C/c1ccc(C(=O)O)cc1	39%	40%	–	–	–	–	–
N#Cc1c(-c2ccccc2)c(-c2ccccc2)n(Cc2ccccc2)c1/N=C/c1ccc2ccccc2c1	26%	50%	–	–	–	–	–
N#Cc1c(-c2ccccc2)c(-c2ccccc2)n(Cc2ccccc2)c1/N=C/c1ccc([N+](=O)[O-])cc1	40%	45%	–	–	–	–	–
COC(=O)c1ccc(/C=N/c2c(C#N)c(-c3ccccc3)c(-c3ccccc3)n2Cc2ccccc2)cc1	19%	27%	6.4 µM	34 µM	4.4 µM	72 µM	–
N#Cc1c(-c2ccccc2)c(-c2ccccc2)n(Cc2ccccc2)c1/N=C/c1cccs1	42%	57%	4.5 µM	1.7 µM	11 µM	35 µM	Activity [3]: Active; Activity [5]: Active; Activity [6]: Active; Activity [8]: Active; Activity [9]: Active; Activity [19]: Active; Activity [20]: Active; Activity [12]: Active; Activity [14]: Active; IC50 [16]: 57 µM
CC(=O)Nc1ccc(/C=N/c2c(C#N)c(-c3ccccc3)c(-c3ccccc3)n2Cc2ccccc2)cc1	10%	14%	–	–	–	–	–
